Assay results taken from patent US12084472B2 (Ardelyx, Inc., priority 2015, dated 2024).

biological target: T1, human TGR5 (Homo sapiens, UniProt Q8TDU6); experiment: Cell-based TGR5 assay (cAMP generation, HTRF); settings: HEK293 cells stably transfected with human TGR5; cAMP by HTRF; 30 minutes at 37° C.; read-out: pEC50 Human TGR5 (converted)
T1 construct: expressed in transfected cells; host or cells: HEK293
T1 sequence (Q8TDU6 1-330): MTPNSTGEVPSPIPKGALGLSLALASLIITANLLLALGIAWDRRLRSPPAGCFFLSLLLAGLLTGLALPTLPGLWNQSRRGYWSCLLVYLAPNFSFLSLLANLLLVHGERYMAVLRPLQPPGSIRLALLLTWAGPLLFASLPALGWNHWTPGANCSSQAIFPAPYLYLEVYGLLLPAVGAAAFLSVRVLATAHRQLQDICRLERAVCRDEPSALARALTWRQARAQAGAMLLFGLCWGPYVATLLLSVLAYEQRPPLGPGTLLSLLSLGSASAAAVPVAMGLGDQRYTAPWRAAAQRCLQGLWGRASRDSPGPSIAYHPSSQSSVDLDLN
Summary of the method: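 First, compounds in 3-fold serial dilution were placed in HBSS with 10 mM HEPES pH 7.4 and 0.5 mM IBMX. Next, human TGR5-expressing HEK293 cells were added and incubated 30 min at 37° C. Finally, cAMP was detected by HTRF and pEC50 derived by logistic fitting.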

| SMILES | EC50 [µM] |
| --- | --- |
| Cc1ccc(S(=O)(=O)N(C)CCCCNC(=O)N[C@@H](CO)[C@@H](O)[C@H](O)[C@H](O)CO)cc1CNC1(c2cnccc2-c2ccccc2OC2CC2)CC1 [Compound I-478, 1-(4-{N-methyl3-[({1-[4-(2-cyclopropoxyphenyl)pyridin-3-yl]cyclopropyl}amino)methyl]-4-methylbenzenesulfonamido}butyl)-3-[(2S,3R,4S,5R)-1,3,4,5,6-pentahydroxyhexan-2-yl]urea] | < 0.1 |
| CC(C)N(CCCCNC(=O)NC[C@H](O)[C@@H](O)[C@H](O)[C@H](O)CO)S(=O)(=O)c1ccc(Cl)c(CNC2(c3cnccc3-c3ccccc3OC3CC3)CC2)c1 [Compound I-751, 4-chloro-3-(((1-(4-(2-cyclopropoxyphenyl)pyridin-3-yl)cyclopropyl)amino)methyl)-N-isopropyl-N-(4-(3-((2S,3R,4R,5R)-2,3,4,5,6-pentahydroxyhexyl)ureido)butyl) benzenesulfonamide] | < 0.1 |
| O=S(=O)(NCC(F)(F)F)c1ccc(Cl)c(COC2(c3cnccc3-c3ccccc3OC3CC3)CC2)c1 [Compound I-772, 4-chloro-3-((1-(4-(2-cyclopropoxyphenyl)pyridin-3-yl)cyclopropoxy)methyl)-N-(2,2,2-trifluoroethyl)benzenesulfonamide] | < 0.1 |
| O=C(CCCSc1ccc(Cl)c(COC2(c3cnccc3-c3ccccc3OC3CC3)CC2)c1)N(CCCO)C[C@H](O)[C@@H](O)[C@H](O)[C@H](O)CO [Compound I-661, 4-{[4-chloro-3-({1-[4-(2-cyclopropoxyphenyl)pyridin-3-yl]cyclopropoxy}methyl)phenyl]sulfanyl}-N-(3-hydroxypropyl)-N-[(2S,3R,4R,5R)-2,3,4,5,6-pentahydroxyhexyl]butanamide] | < 0.1 |
| CS(=O)(=O)NCCN(CCCCSc1ccc(Cl)c(COC2(c3cnccc3-c3ccccc3OC3CC3)CC2)c1)C(=O)[C@@H](O)[C@@H](O)[C@H](O)[C@@H](O)CO [Compound I-575, (2S,3S,4R,5S)-N-(4-{[4-chloro-3-({1-[4-(2-cyclopropoxyphenyl)pyridin-3-yl]cyclopropoxy}methyl)phenyl]sulfanyl}butyl)-2,3,4,5,6-pentahydroxy-N-(2-methanesulfonamidoethyl) hexanamide] | < 0.1 |
| O=C1CCCN1CCCN(CCCSc1ccc(Cl)c(CNC2(c3cnccc3-c3ccccc3OC3CC3)CC2)c1)C(=O)[C@@H](O)[C@@H](O)[C@H](O)[C@@H](O)CO [Compound I-529, (2S,3S,4R,5S)-N-[3-({4-chloro-3-[({1-[4-(2-cyclopropoxyphenyl)pyridin-3-yl]cyclopropyl}amino)methyl]phenyl}sulfanyl)propyl]-2,3,4,5,6-pentahydroxy-N-[3-(2-oxopyrrolidin-1-yl)propyl]hexanamide] | 0.126 to 1 |
| CC(=O)NCCN(CCCCSc1ccc(Cl)c(CNC2(c3cnccc3-c3ccccc3OC3CC3)CC2)c1)C(=O)[C@@H](O)[C@@H](O)[C@H](O)[C@@H](O)CO [Compound I-563, (2S,3S,4R,5S)-N-[4-({4-chloro-3-[({1-[4-(2-cyclopropoxyphenyl)pyridin-3-yl]cyclopropyl}amino)methyl]phenyl}sulfanyl)butyl]-N-(2-acetamidoethyl)-2,3,4,5,6-pentahydroxyhexanamide] | 0.126 to 1 |
| Cc1ccc(CCCCNC(=O)NC[C@H](O)[C@@H](O)[C@H](O)[C@H](O)CO)cc1CNC1(c2cnccc2-c2ccccc2OC2CC2)CC1 [Compound I-240, 1-(4-{3-[({1-[4-(2-cyclopropoxyphenyl)pyridin-3-yl]cyclopropyl}amino)methyl]-4-methylphenyl}butyl)-3-[(2S,3R,4R,5R)-2,3,4,5,6-pentahydroxyhexyl]urea] | < 0.1 |
| O=C(CCCCCCNS(=O)(=O)c1ccc(Cl)c(COC2(c3cnccc3-c3ccccc3OC3CC3)CC2)c1)NC[C@H](O)[C@@H](O)[C@H](O)[C@H](O)CO [Compound I-432, 7-[4-chloro-3-({1-[4-(2-cyclopropoxyphenyl)pyridin-3-yl]cyclopropoxy}methyl)benzenesulfonamido]-N-[(2S,3R,4R,5R)-2,3,4,5,6-pentahydroxyhexyl]heptanamide] | < 0.1 |
| CC(C)(OCc1cc(Cl)ccc1Cl)c1cnccc1-c1ccccc1OC1CC1 [Compound I-740, 4-(2-cyclopropoxyphenyl)-3-(2-((2,5-dichlorobenzyl)oxy)propan-2-yl)pyridine] | < 0.1 |
| O=C(NC[C@H](O)[C@@H](O)[C@H](O)[C@H](O)CO)NC1CN(S(=O)(=O)c2ccc(Cl)c(COC3(c4cnccc4-c4ccccc4OC4CC4)CC3)c2)C1 [Compound I-427, 1-{1-[4-chloro-3-({1-[4-(2-cyclopropoxyphenyl)pyridin-3-yl]cyclopropoxy}methyl)benzenesulfonyl]azetidin-3-yl}-3-[(2S,3R,4R,5R)-2,3,4,5,6-pentahydroxyhexyl]urea] | 0.126 to 1 |
| CN(CCCCN(CCS(C)(=O)=O)C(=O)[C@@H](O)[C@@H](O)[C@H](O)[C@@H](O)CO)S(=O)(=O)c1ccc(Cl)c(COC2(c3cnccc3-c3ccccc3OC3CC3)CC2)c1 [Compound I-459, (2S,3S,4R,5S)-2,3,4,5,6-pentahydroxy-N-(2-methanesulfonylethyl)-N-{4-[N-methyl4-chloro-3-({1-[4-(2-cyclopropoxyphenyl)pyridin-3-yl]cyclopropoxy}methyl)benzenesulfonamido]butyl}hexanamide] | < 0.1 |
| CN(CCCCNS(=O)(=O)c1ccc(Cl)c(COC2(c3cnccc3-c3ccccc3OC3CC3)CC2)c1)C(=O)[C@@H](O)[C@@H](O)[C@H](O)[C@@H](O)CO [Compound I-460, (2S,3S,4R,5S)-N-{4-[4-chloro-3-({1-[4-(2-cyclopropoxyphenyl)pyridin-3-yl]cyclopropoxy}methyl)benzenesulfonamido]butyl}-2,3,4,5,6-pentahydroxy-N-methylhexanamide] | < 0.1 |
| Clc1ccc(Cl)c(CNC2(c3cnccc3-c3ccccc3OC3CCC3)CC2)c1 [Compound I-5, 1-[4-(2-cyclobutoxyphenyl)pyridin-3-yl]-N-[(2,5-dichlorophenyl)methyl]cyclopropan-1-amine] | 0.126 to 1 |
| CN(CCCCNC(=O)NC[C@H](O)[C@@H](O)[C@H](O)[C@H](O)CO)S(=O)(=O)c1ccc(Cl)c(COC2(c3cnccc3-c3ccccc3OC3CC3)CC2)c1 (stereo in doubt) [Compound I-402, 1-{4-[N-methyl4-chloro-3-({1-[4-(2-cyclopropoxyphenyl)pyridin-3-yl]cyclopropoxy}methyl)benzenesulfonamido]butyl}-3-[(2S,3R,4R,5R)-2,3,4,5,6-pentahydroxyhexyl]urea] | < 0.1 |
| CC(CCCN(CCS(C)(=O)=O)C(=O)[C@@H](O)[C@@H](O)[C@H](O)[C@@H](O)CO)c1ccc(Cl)c(COC2(c3cnccc3-c3ccccc3OC3CC3)CC2)c1 (stereo partly drawn) [Compound I-309, (2S,3S,4R,5S)-N-(4-[4-chloro-3-({1-[4-(2-cyclopropoxyphenyl)pyridin-3-yl]cyclopropoxy)methyl)phenyl]pentyl}-2,3,4,5,6-pentahydroxy-N-(2-methanesulfonylethyl)hexanamide] | < 0.1 |
| Cc1cc(CNC2(c3cnccc3-c3ccccc3OC3CC3)CC2)c(Cl)cn1 [Compound I-34, N-[(5-chloro-2-methylpyridin-4-yl)methyl]-1-[4-(2-cyclopropoxyphenyl)pyridin-3-yl]cyclopropan-1-amine] | < 0.1 |
